Measured values published in patent publication US20130109734A1 (Metabolex, Inc., priority 2010, published 2013).

Target: T1, human GPR120 (Homo sapiens, UniProt Q5NUL3)
T1 construct: host or cells: HEK293 cells co-expressing Gqi5
T1 sequence (Q5NUL3 1-361): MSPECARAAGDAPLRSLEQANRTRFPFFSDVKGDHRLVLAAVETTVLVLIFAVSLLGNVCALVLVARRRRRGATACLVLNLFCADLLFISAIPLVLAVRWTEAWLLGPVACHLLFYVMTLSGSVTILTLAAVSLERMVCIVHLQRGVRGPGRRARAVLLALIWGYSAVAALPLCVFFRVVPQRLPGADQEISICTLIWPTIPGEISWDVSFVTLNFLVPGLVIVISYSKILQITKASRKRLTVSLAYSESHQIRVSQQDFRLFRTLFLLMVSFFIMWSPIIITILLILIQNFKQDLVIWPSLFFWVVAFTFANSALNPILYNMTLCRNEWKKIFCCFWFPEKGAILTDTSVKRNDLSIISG
Experiment: Intracellular Ca2+ assay in human GPR120 stable cell line (HEK293 co-expressing Gqi5), Flexstation
Format: cell-based
Conditions: % activity at 5 μM compared to the maximal activity of GW9508 at 6.7 μM (=100%); human GPR120 cells, Ca2+ fluorescence
Method in brief: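 HEK293 cells stably co-expressing Gqi5 and Flag-tagged human GPR120, loaded with Calcium 4 dye in HBSS/HEPES pH 7.4 at 37 °C; compounds at eight concentrations, 0.00001–20 μM, fluorescence (485/525 nm) read 90 s. EC50 from Max−Min change; percent activity relative to GW9508 maximum at 6.7 μM.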

Structure (SMILES): CC1(C)Cc2c(ccc(F)c2COc2c(F)cc(C3CC3C(=O)O)cc2F)O1 (stereo not drawn) [Example 99, 2-(3,5-difluoro-4-((5-fluoro-2,2-dimethyl-2,3-dihydrobenzofuran-4-yl)methoxy)phenyl)cyclopropanecarboxylic acid]
- % Activity (GW9508 Reference Compound): 101.53%

Structure (SMILES): Cc1cc(OCC(=O)O)ccc1OCc1cc(Cl)cc2c1OC(C)(C)C2 [Example 103, 2-(4-((5-chloro-2,2-dimethyl-2,3-dihydrobenzofuran-7-yl)methoxy)-3-methylphenoxy)acetic acid]
- % Activity (GW9508 Reference Compound): 98.96%

Structure (SMILES): CC(CC(=O)O)c1cc(F)c(OCc2cc(Cl)cc3c2OC(C)(C)C3)c(F)c1 (stereo not drawn) [Example 106, 3-(4-((5-chloro-2,2-dimethyl-2,3-dihydrobenzofuran-7-yl)methoxy)-3,5-difluorophenyl)butanoic acid]
- % Activity (GW9508 Reference Compound): 154.51%

Structure (SMILES): COc1cc(COc2ccc(CC(C)C(=O)O)cc2)c2c(c1)CC(C)(C)O2 (stereo not drawn) [Example 108, 3-(4-((5-methoxy-2,2-dimethyl-2,3-dihydrobenzofuran-7-yl)methoxy)phenyl)-2-methylpropanoic acid]
- % Activity (GW9508 Reference Compound): 143.85%

Structure (SMILES): CC(Cc1cc(F)c(OCc2cc(Cl)cc3c2OC(C)C3(C)C)c(F)c1)C(=O)O (stereo not drawn) [Example 109, 3-(4-((5-chloro-2,3,3-trimethyl-2,3-dihydrobenzofuran-7-yl)methoxy)-3,5-difluorophenyl)-2-methylpropanoic acid]
- % Activity (GW9508 Reference Compound): 72.36%

Structure (SMILES): CC(Cc1cc(F)c(OCc2cc(OCc3ccccc3)cc3c2OC(C)(C)C3)c(F)c1)C(=O)O (stereo not drawn) [Example 111, 3-(4-((5-(benzyloxy)-2,2-dimethyl-2,3-dihydrobenzofuran-7-yl)methoxy)-3,5-difluorophenyl)-2-methylpropanoic acid]
- % Activity (GW9508 Reference Compound): 51.55%

Structure (SMILES): CC1(C)Cc2cc(Cl)cc(COc3ccc4c(c3)CC(C(=O)O)C4)c2O1 (stereo not drawn) [Example 112, 5-((5-chloro-2,2-dimethyl-2,3-dihydrobenzofuran-7-yl)methoxy)-2,3-dihydro-1H-indene-2-carboxylic acid]
- % Activity (GW9508 Reference Compound): 115.42%

Structure (SMILES): CC1(C)Cc2cc(F)cc(COc3ccc4cc(C(=O)O)ccc4c3)c2O1 [Example 114, 6-((5-fluoro-2,2-dimethyl-2,3-dihydrobenzofuran-7-yl)methoxy)-2-naphthoic acid]
- % Activity (GW9508 Reference Compound): 123.58%

Structure (SMILES): CC(C)Oc1cc(OCc2cc(F)cc3c2OC(C)(C)C3)ccc1CCC(=O)O [Example 115, 3-(4-((5-fluoro-2,2-dimethyl-2,3-dihydrobenzofuran-7-yl)methoxy)-2-isopropoxyphenyl)propanoic acid]
- % Activity (GW9508 Reference Compound): 151.78%

Structure (SMILES): CC(C)Oc1cc(OCc2cc(Cl)cc3c2OC(C)(C)C3)ccc1CCC(=O)O [Example 116, 3-(4-((5-chloro-2,2-dimethyl-2,3-dihydrobenzofuran-7-yl)methoxy)-2-isopropoxyphenyl)propanoic acid]
- % Activity (GW9508 Reference Compound): 145.6%

Structure (SMILES): Cc1cc2cc(Cl)cc(COc3ccc(CC(C)C(=O)O)cc3F)c2o1 (stereo not drawn) [Example 120, 3-(4-((5-chloro-2-methylbenzofuran-7-yl)methoxy)-3-fluorophenyl)-2-methylpropanoic acid]
- % Activity (GW9508 Reference Compound): 104.49%

Structure (SMILES): CN(C)Cc1cc(OCc2cc(F)cc3c2OC(C)(C)C3)ccc1CCC(=O)O [Example 122, 3-(2-((dimethylamino)methyl)-4-((5-fluoro-2,2-dimethyl-2,3-dihydrobenzofuran-7-yl)methoxy)phenyl)propanoic acid]
- % Activity (GW9508 Reference Compound): 3.58%

Structure (SMILES): CC(=O)Nc1cc(COc2ccc(CC(C)C(=O)O)cc2)c2c(c1)CC(C)(C)O2 (stereo not drawn) [Example 123, 3-(4-((5-acetamido-2,2-dimethyl-2,3-dihydrobenzofuran-7-yl)methoxy)phenyl)-2-methylpropanoic acid]
- % Activity (GW9508 Reference Compound): 47.01%

Structure (SMILES): CC(Cc1ccc(OCc2cc(OC(F)(F)F)cc3c2OC(C)(C)C3)cc1)C(=O)O (stereo not drawn) [Example 124, 3-(4-((2,2-dimethyl-5-(trifluoromethoxy)-2,3-dihydrobenzofuran-7-yl)methoxy)phenyl)-2-methylpropanoic acid]
- % Activity (GW9508 Reference Compound): 131.64%

Structure (SMILES): Cc1cc2c(OCc3cc(F)cc4c3OC(C)(C)C4)ccc(CCC(=O)O)c2o1 [Example 125, 3-(4-((5-fluoro-2,2-dimethyl-2,3-dihydrobenzofuran-7-yl)methoxy)-2-methylbenzofuran-7-yl)propanoic acid]
- % Activity (GW9508 Reference Compound): 32.57%

Structure (SMILES): CC(=O)NCCOC(=O)C(C)Cc1ccc(OCc2cc(Cl)cc3c2OC(C)(C)C3)c(C(F)(F)F)c1 (stereo not drawn) [Example 126, 2-acetamidoethyl 3-(4-((5-chloro-2,2-dimethyl-2,3-dihydrobenzofuran-7-yl)methoxy)-3-(trifluoromethyl)phenyl)-2-methylpropanoate]
- % Activity (GW9508 Reference Compound): 47.02%

Structure (SMILES): CC1(C)Cc2cc(Cl)cc(CNc3ccc(CCC(=O)O)cc3)c2O1 [Example 127, 3-(4-(((5-chloro-2,2-dimethyl-2,3-dihydrobenzofuran-7-yl)methyl)amino)phenyl)propanoic acid]
- % Activity (GW9508 Reference Compound): 152.93%

Structure (SMILES): CC(Cc1ccc(OCc2cc(Cl)cc3c2OC(C)(C)C3O)cc1)C(=O)O (stereo not drawn) [Example 130, 3-(4-((5-chloro-3-hydroxy-2,2-dimethyl-2,3-dihydrobenzofuran-7-yl)methoxy)phenyl)-2-methylpropanoic acid]
- % Activity (GW9508 Reference Compound): 103.85%

Structure (SMILES): CC1(C)Cc2cc(F)cc(COc3ccc(CC(=O)O)cc3)c2O1 [Example 133, 2-(4-((5-fluoro-2,2-dimethyl-2,3-dihydrobenzofuran-7-yl)methoxy)phenyl)acetic acid]
- % Activity (GW9508 Reference Compound): 103.4%

Structure (SMILES): CCc1cc(OCc2cc(F)cc3c2OC(C)(C)C3)ccc1CCC(=O)O [Example 134, 3-(2-ethyl-4-((5-fluoro-2,2-dimethyl-2,3-dihydrobenzofuran-7-yl)methoxy)phenyl)propanoic acid]
- % Activity (GW9508 Reference Compound): 151.44%

Structure (SMILES): CC1(C)Cc2cc(F)cc(COc3ccc(CCC(=O)O)c(OC(F)(F)F)c3)c2O1 [Example 136, 3-(4-((5-fluoro-2,2-dimethyl-2,3-dihydrobenzofuran-7-yl)methoxy)-2-(trifluoromethoxy)phenyl)propanoic acid]
- % Activity (GW9508 Reference Compound): 140.51%

Structure (SMILES): CCc1cc(OCc2cccc3c2CC(C)(C)O3)ccc1CCC(=O)O [Example 140, 3-(4-((2,2-dimethyl-2,3-dihydrobenzofuran-4-yl)methoxy)-2-ethylphenyl)propanoic acid]
- % Activity (GW9508 Reference Compound): 146.18%

Structure (SMILES): C[C@H](Cc1ccc(OCc2cc(Cl)cc3c2OC(C)(C)C3)c(F)c1)C(=O)O [Example 141, (R)-3-(4-((5-chloro-2,2-dimethyl-2,3-dihydrobenzofuran-7-yl)methoxy)-3-fluorophenyl)-2-methylpropanoic acid]
- % Activity (GW9508 Reference Compound): 143.3%

Structure (SMILES): C[C@H](Cc1ccc(OCc2cc(Cl)cc3c2OC(C)(C)C3)c(C(F)(F)F)c1)C(=O)O [Example 143, (R)-3-(4-((5-chloro-2,2-dimethyl-2,3-dihydrobenzofuran-7-yl)methoxy)-3-(trifluoromethyl)phenyl)-2-methylpropanoic acid]
- % Activity (GW9508 Reference Compound): 90.56%

Structure (SMILES): [2H]C1([2H])c2cc(F)cc(COc3ccc(CC(C)C(=O)O)cc3)c2OC1(C)C (stereo not drawn) [Example 145, 3-(4-((3,3-dideuterio-5-fluoro-2,2-dimethyl-2,3-dihydrobenzofuran-7-yl)methoxy)phenyl)-2-methylpropanoic acid]
- % Activity (GW9508 Reference Compound): 143.69%

Structure (SMILES): [2H]C1([2H])c2cc(Cl)cc(COc3ccc(CC(C)C(=O)O)cc3F)c2OC1(C)C (stereo not drawn) [Example 146, 3-(4-((3,3-dideuterio-5-chloro-2,2-dimethyl-2,3-dihydrobenzofuran-7-yl)methoxy)-3-fluorophenyl)-2-methylpropanoic acid]
- % Activity (GW9508 Reference Compound): 140.72%

Structure (SMILES): [2H]C1([2H])c2cc(Cl)cc(COc3ccc(CC(C)C(=O)O)cc3C(F)(F)F)c2OC1(C)C (stereo not drawn) [Example 147, 3-(4-((3,3-dideuterio-5-chloro-2,2-dimethyl-2,3-dihydrobenzofuran-7-yl)methoxy)-3-(trifluoromethyl)phenyl)-2-methylpropanoic acid]
- % Activity (GW9508 Reference Compound): 138.65%

Structure (SMILES): CC(Cc1ccc(OCc2cc(Cl)cc3c2OCC3(C)C)cc1)C(=O)O (stereo not drawn) [Example 148, 3-(4-((5-chloro-3,3-dimethyl-2,3-dihydrobenzofuran-7-yl)methoxy)phenyl)-2-methylpropanoic acid]
- % Activity (GW9508 Reference Compound): 113.89%

Structure (SMILES): Cc1cc2cccc(COc3c(F)cc(CC(C)C(=O)O)cc3F)c2s1 (stereo not drawn) [Example 151, 3-(3,5-difluoro-4-((2-methylbenzo[b]thiophen-7-yl)methoxy)phenyl)-2-methylpropanoic acid]
- % Activity (GW9508 Reference Compound): 117.38%

Structure (SMILES): Cc1cc2cccc(COc3ccc4c(c3)CCC4CC(=O)O)c2s1 (stereo not drawn) [Example 152, 2-(5-((2-methylbenzo[b]thiophen-7-yl)methoxy)-2,3-dihydro-1H-inden-1-yl)acetic acid]
- % Activity (GW9508 Reference Compound): 83.81%
